Values quoted from earlier work as cited in US9206425B2, “Methods for treating Niemann-Pick type C disease” (Trustees of Dartmouth College, priority 2011, dated 2015).
Where two headings read alike, the source gives them in different places.

How the values were obtained:
ACAT1 [1] = biological target: T1, ACAT1 (Homo sapiens, UniProt P35610); details: Cho et al. 2003
T1 sequence (P35610 1-550): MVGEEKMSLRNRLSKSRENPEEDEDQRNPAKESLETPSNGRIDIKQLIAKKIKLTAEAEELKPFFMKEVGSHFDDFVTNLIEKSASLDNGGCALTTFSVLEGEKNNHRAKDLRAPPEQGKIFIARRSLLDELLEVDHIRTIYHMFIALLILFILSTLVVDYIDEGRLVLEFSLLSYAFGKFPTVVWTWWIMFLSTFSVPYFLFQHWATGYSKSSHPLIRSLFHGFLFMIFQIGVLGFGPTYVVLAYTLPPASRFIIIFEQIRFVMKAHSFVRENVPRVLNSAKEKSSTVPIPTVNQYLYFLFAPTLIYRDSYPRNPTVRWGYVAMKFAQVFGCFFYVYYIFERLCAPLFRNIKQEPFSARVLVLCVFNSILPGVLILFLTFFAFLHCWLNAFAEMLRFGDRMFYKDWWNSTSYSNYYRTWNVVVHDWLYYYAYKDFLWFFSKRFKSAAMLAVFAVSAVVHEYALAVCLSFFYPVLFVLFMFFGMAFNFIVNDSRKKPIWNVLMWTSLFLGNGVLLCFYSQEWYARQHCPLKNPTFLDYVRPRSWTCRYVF

human macrophages = details: in vitro
[2] = test system: mouse model for Alzheimer disease
[3] = test system: coronary atherosclerosis / familial hypercholesterolemia
hACAT-2 = biological target: T2, hACAT-2 (Homo sapiens, UniProt O75908)
T2 sequence (O75908 1-522): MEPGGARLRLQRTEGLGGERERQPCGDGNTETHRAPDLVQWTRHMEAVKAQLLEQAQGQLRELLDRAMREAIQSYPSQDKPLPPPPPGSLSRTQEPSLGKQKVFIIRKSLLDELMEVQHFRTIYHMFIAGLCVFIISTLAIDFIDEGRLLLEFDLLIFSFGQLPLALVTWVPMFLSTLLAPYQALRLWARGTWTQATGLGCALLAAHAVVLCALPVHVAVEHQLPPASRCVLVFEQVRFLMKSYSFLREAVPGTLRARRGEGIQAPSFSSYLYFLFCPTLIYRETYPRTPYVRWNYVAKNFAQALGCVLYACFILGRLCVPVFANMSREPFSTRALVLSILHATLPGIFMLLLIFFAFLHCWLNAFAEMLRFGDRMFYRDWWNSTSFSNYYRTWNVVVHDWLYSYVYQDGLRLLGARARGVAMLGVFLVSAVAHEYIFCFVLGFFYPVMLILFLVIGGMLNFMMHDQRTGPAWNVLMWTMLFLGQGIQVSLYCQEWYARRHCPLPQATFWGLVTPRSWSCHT

ACAT1 and ACAT2 = details: Kitayama et al. 2006
ACAT1 [4] = biological target: T1, ACAT1; details: Lee et al. 2004
NPC disease = details: humans, two-year study
[5] = mouse model for Alzheimer disease
[6] = continuous administration starting at PND 7

In the case of `CCOC(=O)OC(=O)OCC` [diethyl pyrocarbonate], the “greater activity on ACAT1 compared to ACAT-2” value (ACAT1 [1]) is given as 4 fold.
In the case of `CC(C)c1cc(C(C)C)c(CC(=O)NS(=O)(=O)Oc2c(C(C)C)cccc2C(C)C)c(C(C)C)c1` [Avasimibe], the safety (administered to rats, dogs, and humans) is listed as “safe”, the “foam cell formation in macrophages” value (human macrophages) is listed as “reduces foam cell formation” and the “activity in mouse model for Alzheimer's disease” value ([2]; 14.4 mg/kg/day) is listed as “beneficial activity”. For the same compound, the amyloid plaque load [2, 5] was “significant decreases”, the cognitive deficits [2, 5] was “reduction in cognitive deficits” and the “progression of coronary atherosclerosis” value ([3]; humans, in combination with a statin drug) was “failed to demonstrate efficacy”.
For `CC(O)COC[C@H]1O[C@@H]2O[C@H]3[C@H](O)[C@@H](O)[C@@H](O[C@H]4[C@H](O)[C@@H](O)[C@@H](O[C@H]5[C@H](O)[C@@H](O)[C@@H](O[C@H]6[C@H](O)[C@@H](O)[C@@H](O[C@H]7[C@H](O)[C@@H](O)[C@@H](O[C@H]8[C@H](O)[C@@H](O)[C@@H](O[C@H]1[C@H](O)[C@H]2O)O[C@@H]8COCC(C)O)O[C@@H]7COCC(C)O)O[C@@H]6COCC(C)O)O[C@@H]5COCC(C)O)O[C@@H]4COCC(C)O)O[C@@H]3COCC(C)O` (stereo partly drawn) [HPCD, hydroxypropyl beta-cyclodextrin], the prolonged lifespan (NPC1^−/− mice; single injection at PND 7) is given as 27%, the cholesterol accumulation (NPC1^−/− mice; weekly treatment) is given as “normalize cholesterol accumulation” and the survival (NPC1^−/− mice; weekly treatment) is given as “prolong survival”. The “crossing the blood brain barrier” value (NPC mice and NPC cats; mouse, in vivo) was “difficulty in crossing the blood brain barrier” and the “macrophage activation in the lungs” value (NPC mice and NPC cats; treated NPC mice and NPC cats) was “increases in macrophage activation”.
In the case of `COc1ccc([C@@H](O)[C@@H](C)Oc2ccc([C@H]3O[C@H](c4ccc(O[C@H](C)[C@H](O)c5ccc6c(c5)OCO6)c(OC)c4)[C@H](C)[C@H]3C)cc2OC)cc1OC` [manassantin B], the “inhibition of hACAT-2” value (hACAT-2; at 1 mM) is listed as 32%.
In the case of `CCCCCCCCN1CCc2c(C)c(CC(=O)O)c(C)c(NC(=O)C(C)(C)C)c21` [Pactimibe], the “potency on ACAT1 versus ACAT2” value (ACAT1 and ACAT2) is given as “approximately equal potency” and the “efficacy as supplement to statin treatment” value ([3]; patients with familial hypercholesterolemia) is given as “lacked efficacy”.
In the case of saucerneol B, the IC50 (hACAT-2; Lee et al. 2004) is listed as 124 µM and the IC50 (ACAT1 [4]) is listed as 43 µM.
For `CCCCN1C[C@H](O)[C@@H](O)[C@H](O)[C@H]1CO` [Miglustat], the clinical onset (NPC1^−/− mice; [6]) is given as “significantly delayed”, the prolonged lifespan (NPC1^−/− mice; [6]) is given as 49% and the “patients with stabilized NPC disease progression” value (NPC disease) is given as 80 % of patients.
In the case of `CSc1cc(C)nc(SC)c1NC(=O)CN1CCN(CCSc2nc3ccccc3[nH]2)CC1` [K-604], the safety in vivo (laboratory animals) is given as “safe for use in vivo”.
